Experimental data taken from US7053053B2, “Humanin-like peptide and use thereof” (Takeda Chemical Industries, Ltd., priority 2001, dated 2006).

Tests used:
[1] = system: nerve cells into which the causative gene of familial Alzheimer's disease is introduced; conditions: nerve cells with the causative gene of familial Alzheimer's disease introduced; Proc. Natl. Acad. Sci. USA 98: 6336–6341, 2001; cited from earlier work
nerve cells = conditions: induced by the addition of β amyloid; Proc. Natl. Acad. Sci. USA 98: 6336–6341, 2001; cited from earlier work
[2] = system: rat adrenal medulla-derived pheochromocytoma cell PC12h; assay: Inhibition of glutamic acid-induced cell death of PC12h cells (LDH activity of cell extract); format: cell-based; conditions: for cell survival ratio: 1 mM glutamic acid, 72 hrs, survival in glutamic acid non-added plot = 100%, peptide not-added plot 34.0%
Protocol: Inhibitory Activity of the Humanin-Like Peptide against Glutanic Acid-Induced Cell Death of Rat Adrenal Medulla-Derived Pheochromocytoma Cell PC12h
PC12h cells (supplied by Prof. Hiroshi Hatanaka, Institute for Protein Research, Osaka University; Hatanaka, H., Brain Research 222: 225–233, 1981) were plated at a density of 2×10^4 cells/cm^2 in collagen-coated 96-well plates (Iwaki) containing Dulbecco's modified Eagle's medium (hereinafter referred to as “DMEM”) containing 10% fetal bovine serum and 5% horse serum. After 24 hrs, the medium was exchanged for 100 μl of DMEM containing […] HEPES (pH 7.5). At the same time, various concentrations of the humanin-like peptide prepared in Example 2 (SEQ ID NO: 4) and glutamic acid to give a concentration of 1 mM were added to the medium. After 72 hrs, cells were lysed with 100 μl of phosphate buffered saline containing 0.2% Tween 20. Then, the lactate dehydrogenase (LDH) activity of the cell extract was determined with LDH Cytotoxic Test WAKO (Wako Purechemical Industries).

Substance	death of nerve cells [1]	death of nerve cells (nerve cells)	glutamic acid-induced cell death ([2]; PC12h cells, conclusion in words)	cell survival ratio ([2]; humanin-like peptide 1 μM) [%]	cell survival ratio ([2]; humanin-like peptide 10 μM) [%]
humanin: peptide consisting of 24 residues (WO 01/21787), encoded by a gene cloned from the occipital lobe by Hashimoto et al. (MAPRGFSCLLLLTSEIDLPVKRRA; Humanin; UniProt Q8IVG9 1-24, looked up)	inhibited	inhibited			
humanin-like peptide: polypeptide comprising the amino acid sequence as shown in SEQ ID NO: 4; 24 residues, 6 different from humanin; synthesised in Example 2 (MARRGFSCLLLSTTATDLPVKRRT; Human)			inhibited	59.3	74.6
